System: imiquimod-induced psoriasis
Assay: Imiquimod-induced psoriasis (Th17 inflammation) model in mice, topical treatment once daily D7-D13: PASI, modified PASI, body weight, use of enrichment, TEWL
Assay type: in vivo
Set-up: key to Mean score use enrichment: 0 = no use of dental rolls to 4 = use of all 4; key to PASI Mean score values: sum of erythema, induration, peeling scores, each 0-3 (0 = none)
Experimental: Thirty-six (36) female Balb/c mice are weighed and randomly divided into 9 groups (n=4) according to body weight on D1. For mice of native group 1 and tolerance groups 8 and 9, no induction of psoriasis is performed between D1 and D13. Psoriasis is induced in groups 2 to 7 by once daily topical application for 13 days (from day 1 to day 13) of 65 mg of Aldara™ cream (5.0% imiquimod) onto the shaved and epilated back of mice. Before the first treatment, a second randomization of mice of the 6 imiquimod-induced psoriasis groups is performed according to the severity of psoriasis (PASI), and also the body weight of mice. Starting on day 7 and until day 13, 100 mg of test formulations […] and 65 mg of vehicle (groups 1 and […]) are topically administered once daily for 7 consecutive days onto the shaved back skin of mice. Several measurements are taken during treatment period from day 7 to day 14: psoriasis index (PASI), body weight, use of enrichment and mortality. At the end of treatment period, TEWL is assessed, and blood and skin samples are collected. Histological analysis of skin samples is used for microscopic scoring of psoriasis and the determination of the thickness of parakeratosis and epidermis and blood analysis is used for assessing the level of proinflammatory biomarkers (cytokines assays). The effect of treatment of psoriasis induced mice with BETi formulations at the four dose levels are compared with Dermoval® cream containing 0.05% clobetasol propionate (reference) and vehicle (positive control) and also with healthy mice treated with vehicle (negative control).
PASI scoring takes into account the following 3 parameters: the presence of erythema on the skin, induration of the skin (thickening) and peeling of the skin at the area of the induction of psoriasis.
The presence of erythema on the skin at the area of induction of psoriasis with the following scoring grid: • 0=no or no more erythema on the skin, • 1=weak erythema on the skin, • 2=moderate erythema on the skin, • 3=important erythema on the skin.
The presence of induration of the skin at the area of induction of psoriasis with the following scoring grid: • 0=no or no more induration of the skin, • 1=weak induration of the skin, • 2=moderate induration of the skin, • 3=important induration of the skin.
The presence of peeling of the skin at the area of induction of psoriasis with the following scoring grid: • 0=no or no more dryness/peeling of the skin, • 1=weak dryness/peeling of the skin, • 2=moderate dryness/peeling of the skin, • 3=important dryness/peeling of the skin.
The sum of the mean scores of these 3 parameters result in the mean PASI score.
One of the issues with a steroid is that it causes skin thinning and continues to have an effect on no longer inflamed skin and the model set up and measurements above are not designed to reflect this negative effect. Therefore, a modified PASI (mPASI) is calculated in the same the manner as mean PASI score but excludes the scoring for induration (thickening of the skin).
Mice are weighed three times during the week of D1 to D7, and then daily during the week of D7 to D13, as well as on the day D14 when they are sacrificed. It should be noted that a characteristic body weight loss of mice is observed after the start of the induction of psoriasis, mainly during the first days following it. The body weight loss can reach between 10 to 15%.
For the duration of the experiment, dental rolls are used as enrichment and placed in each cage and replaced twice. Between D1 and D7, the number of dental rolls used by animals are determined twice in the morning, and are determined daily during D7 to D14, at the time of PASI or the tolerance assessment. The use of dental rolls is scored from 0=no use of dental rolls to 4=use of the 4 dental rolls. In the case where only half of a dental roll is used, a score of 0.5 is assigned. […]

Cn1cc(-c2cccc(O)c2Oc2ccccc2)c2cc[nH]c2c1=O [BETi1]
Change in Modified PASI Mean score values (Table 1C, imiquimod-induced mice, treatment day 0, listed as BETi1 0.001%): 4.25
Change in Modified PASI Mean score values (Table 1C, imiquimod-induced mice, treatment day 0, listed as BETi1 0.01%): 4.375
Change in Modified PASI Mean score values (Table 1C, imiquimod-induced mice, treatment day 0, listed as BETi1 0.1%): 4.375
Change in Modified PASI Mean score values (Table 1C, imiquimod-induced mice, treatment day 1, listed as BETi1 0.001%): 5.375
Change in Modified PASI Mean score values (Table 1C, imiquimod-induced mice, treatment day 1, listed as BETi1 0.01%): 4
Change in Modified PASI Mean score values (Table 1C, imiquimod-induced mice, treatment day 1, listed as BETi1 0.1%): 4.375
Change in Modified PASI Mean score values (Table 1C, imiquimod-induced mice, treatment day 2, listed as BETi1 0.001%): 4.75
Change in Modified PASI Mean score values (Table 1C, imiquimod-induced mice, treatment day 2, listed as BETi1 0.01%): 2.875
Change in Modified PASI Mean score values (Table 1C, imiquimod-induced mice, treatment day 2, listed as BETi1 0.1%): 3.125
Change in Modified PASI Mean score values (Table 1C, imiquimod-induced mice, treatment day 3, listed as BETi1 0.001%): 4.25
Change in Modified PASI Mean score values (Table 1C, imiquimod-induced mice, treatment day 3, listed as BETi1 0.01%): 2.5
Change in Modified PASI Mean score values (Table 1C, imiquimod-induced mice, treatment day 3, listed as BETi1 0.1%): 2
Change in Modified PASI Mean score values (Table 1C, imiquimod-induced mice, treatment day 4, listed as BETi1 0.001%): 4
Change in Modified PASI Mean score values (Table 1C, imiquimod-induced mice, treatment day 4, listed as BETi1 0.01%): 2.125
Change in Modified PASI Mean score values (Table 1C, imiquimod-induced mice, treatment day 4, listed as BETi1 0.1%): 0.75
Change in Modified PASI Mean score values (Table 1C, imiquimod-induced mice, treatment day 5, listed as BETi1 0.001%): 3.375
Change in Modified PASI Mean score values (Table 1C, imiquimod-induced mice, treatment day 5, listed as BETi1 0.01%): 1
Change in Modified PASI Mean score values (Table 1C, imiquimod-induced mice, treatment day 5, listed as BETi1 0.1%): 0.375
Change in Modified PASI Mean score values (Table 1C, imiquimod-induced mice, treatment day 6, listed as BETi1 0.001%): 3
Change in Modified PASI Mean score values (Table 1C, imiquimod-induced mice, treatment day 6, listed as BETi1 0.01%): 1.25
Change in Modified PASI Mean score values (Table 1C, imiquimod-induced mice, treatment day 6, listed as BETi1 0.1%): 0.25
Change in Modified PASI Mean score values (Table 1C, imiquimod-induced mice, treatment day 7, listed as BETi1 0.001%): 3
Change in Modified PASI Mean score values (Table 1C, imiquimod-induced mice, treatment day 7, listed as BETi1 0.01%): 1
Change in Modified PASI Mean score values (Table 1C, imiquimod-induced mice, treatment day 7, listed as BETi1 0.1%): 0.25
Change in Modified PASI Mean score values (Table 1D, relative to day 0 = 100, treatment day 0): 100
Change in Modified PASI Mean score values (Table 1D, relative to day 0 = 100, treatment day 1, listed as BETi1 0.001%): 126.47
Change in Modified PASI Mean score values (Table 1D, relative to day 0 = 100, treatment day 1, listed as BETi1 0.01%): 91.43
Change in Modified PASI Mean score values (Table 1D, relative to day 0 = 100, treatment day 1, listed as BETi1 0.1%): 100
Change in Modified PASI Mean score values (Table 1D, relative to day 0 = 100, treatment day 2, listed as BETi1 0.001%): 111.76
Change in Modified PASI Mean score values (Table 1D, relative to day 0 = 100, treatment day 2, listed as BETi1 0.01%): 65.71
Change in Modified PASI Mean score values (Table 1D, relative to day 0 = 100, treatment day 2, listed as BETi1 0.1%): 71.43
Change in Modified PASI Mean score values (Table 1D, relative to day 0 = 100, treatment day 3, listed as BETi1 0.001%): 100
Change in Modified PASI Mean score values (Table 1D, relative to day 0 = 100, treatment day 3, listed as BETi1 0.01%): 57.14
Change in Modified PASI Mean score values (Table 1D, relative to day 0 = 100, treatment day 3, listed as BETi1 0.1%): 45.72
Change in Modified PASI Mean score values (Table 1D, relative to day 0 = 100, treatment day 4, listed as BETi1 0.001%): 94.12
Change in Modified PASI Mean score values (Table 1D, relative to day 0 = 100, treatment day 4, listed as BETi1 0.01%): 48.57
Change in Modified PASI Mean score values (Table 1D, relative to day 0 = 100, treatment day 4, listed as BETi1 0.1%): 17.142
Change in Modified PASI Mean score values (Table 1D, relative to day 0 = 100, treatment day 5, listed as BETi1 0.001%): 79.41
Change in Modified PASI Mean score values (Table 1D, relative to day 0 = 100, treatment day 5, listed as BETi1 0.01%): 22.86
Change in Modified PASI Mean score values (Table 1D, relative to day 0 = 100, treatment day 5, listed as BETi1 0.1%): 8.57
Change in Modified PASI Mean score values (Table 1D, relative to day 0 = 100, treatment day 6, listed as BETi1 0.001%): 70.59
Change in Modified PASI Mean score values (Table 1D, relative to day 0 = 100, treatment day 6, listed as BETi1 0.01%): 28.57
Change in Modified PASI Mean score values (Table 1D, relative to day 0 = 100, treatment day 6, listed as BETi1 0.1%): 5.71
Change in Modified PASI Mean score values (Table 1D, relative to day 0 = 100, treatment day 7, listed as BETi1 0.001%): 70.59
Change in Modified PASI Mean score values (Table 1D, relative to day 0 = 100, treatment day 7, listed as BETi1 0.01%): 22.86
Change in Modified PASI Mean score values (Table 1D, relative to day 0 = 100, treatment day 7, listed as BETi1 0.1%): 5.71
Mean score use enrichment (imiquimod-induced mice, Before D 1, listed as BETi 0.001%): 4.00
Mean score use enrichment (imiquimod-induced mice, Before D 1, listed as BETi 0.01%): 4.00
Mean score use enrichment (imiquimod-induced mice, Before D 1, listed as BETi 0.1%): 4.00
Mean score use enrichment (imiquimod-induced mice, Before D 1, listed as BETi 1.0%): 3.75
Modified PASI Mean score values (imiquimod-induced mice, D 1): 0.00
PASI Mean score values (imiquimod-induced mice, D 1): 0.00
Mean score use enrichment (imiquimod-induced mice, D 1-D 8, listed as BETi 0.001%): 1.79
Mean score use enrichment (imiquimod-induced mice, D 1-D 8, listed as BETi 0.01%): 1.61
Mean score use enrichment (imiquimod-induced mice, D 1-D 8, listed as BETi 0.1%): 1.54
Mean score use enrichment (imiquimod-induced mice, D 1-D 8, listed as BETi 1.0%): 2.56
Mean body weights (imiquimod-induced mice, D 1, listed as BETi1 1.0%): 18.11

From patent publication US20250339409A1, “USES OF PAN BET INHIBITORS” (VYNE THERAPEUTICS INC., priority 2021, published 2025)
